The values below come from patent US20260285903A1, “SYNTHESIZED BIOLOGICALLY ACTIVE COMPOUNDS AND METHODS OF MAKING AND USING” (Georgia State University Research Foundation, Inc., priority 2023, published 2026).

For data set [1], the system named is AOM/DSS-induced colon tumors. Briefly: AOM/DSS-induced CAC mouse model, oral gavage. In kind it is in vivo, C57BL/6J mice. Particulars: 5 mg/kg oral, vs AOM/DSS group. The protocol:
Female C57BL/6J mice (Strain #:000664, The Jackson Laboratory, Bar Harbor, ME), female interleukin-10 knock-out (IL10^−/− mice, B6.129P2-IL10 tmlCgn, The Jackson Laboratory), and female CD-1 mice (CD-1@IGS Mouse, outbred, Charles River) were housed in a clean facility maintained at 22±2° C. and 30-70% relative humidity with a 12-h light/dark cycle. The diet (ABDIET@PICOLAB®, PMI Nutrition International LLC, Arden Hills, MN, USA) and water were provided ad libitum. Mice experiments were performed following ARRIVE guidelines 2.0, with approval from the Georgia State University Institutional Animal Care and Use Committee (IACUC, Protocol #A20039).
An AOM/DSS-induced CAC mouse model (C57BL/6J) was used to test the anti-cancer effects of free M13, NL, and M13-NL. […] Healthy mice were used as the control group (WT group).
Histological assessments of the colon tissues from AOM/DSS-induced CAC mice were performed. […] Immunofluorescence (IF) staining of apoptotic cells (TUNEL) and immunohistochemical (IHC) staining of Ki-67 were used to investigate the pro-apoptotic and anti-proliferative effects of M13-NL in vivo.

The test system of data set [2] is human normal colon fibroblast cells (CCD-18Co). Particulars: cited from earlier work.
Another data set has as its system 25 selected targets. Briefly: In vitro evaluation of safety and toxicity (InVEST) screening. The procedure: Safety screening of M13 was performed using an in vitro evaluation of safety and toxicity (InVEST). The effects of M13 was tested against 25 selected targets, including factors known to be involved in toxicity in humans.
The subject of data set [3] is 3D-cultured Caco-2/BBe cells. Briefly: 3D droplet-based cell spheroid model, long-term cytotoxicity. Particulars: Homo sapiens, Caco-2, 264 h, 11 days. The protocol: To assess the long-term cytotoxicity of M13 against cancer cells, a 3D droplet-based Caco-2/BBe cell spheroid model was established using 3D printing. The diameter of the 3D cell spheres was approximately 1.65-1.75 mm. The 3D-cultured cells were incubated with different concentrations of M13 for 11 days, and droplet size (calculated using scanned images) and viability (live/dead cell staining and intracellular ATP) were analyzed (FIG. 12C). […] The cell viability of the M13-treated spheres was normalized as a percentage of the negative control (NC, 100% viable, without M13 treatment).

In the case of `CCCCCC(CC(=O)CCc1ccc(O)c(OC)c1)SCC(NC(=O)CCC(N)C(=O)O)C(=O)NCC(=O)O` (stereo not shown) [M13, 5-glutathione-6-shogaol], in data set [1], the number of tumors result was “failed to reduce the number of tumors”. In addition, the toxicity entry in data set [2] was “low toxicity”. For the same compound, in the data set with 25 selected targets, the “effect on the activities of 25 assorted targets from five target classes” value is recorded as “did not have any significant effect”; the “inhibition of GPCR targets, ion channel (5-HT3), phosphodiesterase, protease thrombin alpha” value is recorded as “did not inhibit”; the “modulation of the activity of the nuclear receptor AHR” value was “did not significantly modulate”. Besides, the minimal effective concentration in data set [3] (read-out: M13 concentration at which green fluorescence intensity is significantly lower than NC, live/dead staining) was more than 80 µM. In addition, the EC50 in data set [3] (ATP content, extrapolated dose-response curve, read-out: half-maximal effective concentration (EC50)) was 182 µM.
